In patent US20220354929A1, “PEPTIDES AND USES THEREOF” (LATERAL IP PTY LTD, priority 2019, published 2022):
“And” between values parts separate entries of the source, which are not always exact repeats. Equal entries are not always repeated. “Also recorded” adds a separate entry of the source.

Assays:
dorsal horn neurones = assay: whole-cell patch clamp recording in spinal cord slices from Chung models of neuropathic pain: membrane properties of dorsal horn neurones; assay type: cell-based, rat; settings: for Membrane Potential, mean in presence of peptide: ipsilateral to injury; for Normalised Input Resistance, mean in presence of peptide / Normalised Input Resistance, ΔIR: control = 100; for reversal potential of peptide-induced response (intersection of VI relations): individual neurones; for Normalised Membrane Potential, mean in presence of peptide / Normalised Membrane Potential, ΔVm: rest = 100
Description: (§1) An in vitro spinal cord slice with intact dorsal root afferents combined with single-cell whole-cell patch clamp electrophysiological recording techniques was used to assess the electrophysiological properties of the peptides having the amino acid sequence of SEQ ID NO:2, 3, 4 and 5.
The spinal nerve ligation model (Chung model) was first reported by Kim and Chung (1992; Pain, 50(3):355-63) and involves a single tight ligation of the L5 spinal nerve. […] This model has been used as a “gold standard” model for assessing the efficacy of novel compounds targeting neuropathic pain.
Adult male Sprague-Dawley rats, 8-9 weeks old, weighing 220-250 g at the time of surgery, were purchased from Charles River UK Ltd. The animals were housed in groups of 4 in an air-conditioned room on a 12-hour light/dark cycle. Food and water were available ad libitum. They were allowed to acclimatise to the experimental environment for three days by leaving them on a raised metal mesh for at least 40 min. The baseline paw withdrawal threshold (PWT) was examined using a series of graduated von Frey hairs for 3 consecutive days before surgery and re-assessed on the 6th to 8th day after surgery and on the 12th to 14th day after surgery before drug dosing. Each rat was anaesthetized with 5% isoflurane mixed with oxygen (2L per min) followed by an intramuscular (i.m.) injection of ketamine 90 mg/kg plus xylazine 10 mg/kg. The back was shaved and sterilized with povidone-iodine. The animal was placed in a prone position and a para-medial incision was made on the skin covering the L4-6 level. The L5 spinal nerve was carefully isolated and tightly ligated with 6/0 silk suture. The wound was then closed in layers after a complete hemostasis. A single dose of antibiotics (Amoxipen, 15 mg/rat, i.p.) was routinely given for prevention of infection after surgery. The animals were placed in a temperature-controlled recovery chamber until fully awake before being returned to their home cages.
(§2) Chung model rats, aged 8 to 12 weeks, were housed in an air-conditioned room on a 12 hour light/dark cycle with food and water available ad libitum. The rats were terminally anaesthetized using isofluorane and decapitated. The vertebral column, rib cage and surrounding tissues were rapidly removed and pinned under ice-cold (<4° C.), high sucrose-containing artificial cerebrospinal fluid (aCSF) comprising: 127 mM sucrose, 1.9 mM KCl, 1.2 mM KH2PO4, 0.24 mM CaCl2, 3.9 mM MgCl2, 26 mM NaHCO3, 10 mM D-glucose and 0.5 mM ascorbic acid. A laminectomy was performed and the spinal cord and associated roots gently dissected and teased out of the spinal column and surrounding tissues. Dura and pia mater and ventral roots were subsequently removed with fine forceps and the spinal cord hemisected. Care was taken to ensure dorsal root inputs to the spinal cord were maintained. The hemisected spinal cord-dorsal root preparations were secured to a tissue slicer and spinal cord slices (400 to 450 μm thick) with dorsal roots attached were cut in chilled (<4° C.) high sucrose aCSF using a Leica VT1000s microtome.
(§3) Slices were transferred to a small beaker containing ice cold aCSF with 127 mM NaCl, 1.9 mM KCl, 1.2 mM KH2PO4, 1.3 mM MgCl2, 2.4 mM CaCl2, 26 mM NaHCO3 and 10 mM D-glucose, and rapidly warmed to 35° C. ±1° C. in a temperature-controlled water bath over a 20 minute period, then subsequently removed and maintained at room temperature (22° C. ±2° C.) prior to electrophysiological recording. Electrophysiological recording was performed in aCSF comprising 127 mM NaCl, 1.9 mM KCl, 1.2 mM KH2PO4, 1.3 mM MgCl2, 2.4 mM CaCl2, 26 mM NaHCO3 and 10 mM D-glucose.
Whole-cell recordings were performed at 34-35° C. from Lamina I or II neurones in the dorsal horn of the spinal cord slices using Axopatch 1D and/or Multiclamp 700B amplifies and using the “blind” version of the patch-clamp technique. […]

[1] = system: dorsal root afferent-mediated synaptic inputs to dorsal horn neurones; assay: whole-cell recording in spinal cord slices from Chung models: dorsal root afferent-mediated synaptic inputs (evoked EPSPs/IPSPs); assay type: cell-based, rat; settings: for effect on dorsal root-evoked EPSPs / excitatory synaptic transmission (in words) / effect on dorsal root-evoked IPSPs / inhibitory synaptic transmission (in words): peptide 5 μM, dorsal root stimulation 0.1 Hz
Protocol: as §1, §2, §3
Whole-cell recordings were performed at 34-35° C. from Lamina I or II neurones in the dorsal horn of the spinal cord slices using Axopatch 1D and/or Multiclamp 700B amplifies and using the “blind” version of the patch-clamp technique.
Patch pipettes were pulled from thin-walled borosilicate glass with resistances of between 3 and 8 MS2 when filled with intracellular solution (140 mM potassium gluconate, 10 mM KCl, 1 mM EGTA-Na, 10 mM HEPES, 4 mM Na2ATP, 0.3 mM Na-GTP). The peptides of SEQ ID NOs:2, 3, 4 or 5 (LAT7771, LAT7772, LAT7773 or LAT7774) were diluted in the tissue bath at a concentration of 5 μM.
A concentric bipolar stimulating electrode was placed appropriately either on the dorsal root or dorsal root entry zone to evoke postsynaptic potentials/currents in recorded cells (see FIG. 1). […] EPSPs/EPSCs were confirmed as monosynaptic on the basis of being characterised by a constant latency and rise-time with few failures.
Recordings were monitored on an oscilloscope and stored on digital audio tapes for later off-line analysis. In addition, data were low-pass filtered at 2-5 kHz, (1 kHz for voltage-clamp data), digitized at 2-10 kHz and stored on a PC running pCLAMP 10 data acquisition software (Axon Instruments). Analysis of electrophysiological data was carried out using Clampfit 10 software.

[2] = system: Chung model of neuropathic pain; assay: paw withdrawal threshold (von Frey) in Chung model of neuropathic pain, oral or intramuscular administration; assay type: in vivo, rat; settings: for paw withdrawal threshold (PWT) / reversal of mechanical allodynia: 2 hours after administration, ipsilateral side
Description: Chung model of neuropathic pain was used to compare the in vivo efficacy of LAT8881 and LAT7771 administered orally or intramuscularly.
The spinal nerve ligation model (Chung model) was first reported by Kim and Chung (1992; Pain, 50(3):355-63) and involves a single tight ligation of the L5 spinal nerve. […] This model has been used as a “gold standard' model for assessing the efficacy of novel compounds targeting neuropathic pain.
Adult male Sprague-Dawley rats, 8-9 weeks old, weighing 220-250 g at the time of surgery, were anaesthetised with 3% isoflurane mixed with oxygen followed by an intramuscular injection of a mixture of ketamine and xylazine. The back was shaved and sterilised with povidone-iodine soaked cotton balls. The L5 spinal nerve was carefully isolated and tightly located with 6/0 silk suture and the wound was closed in layers. The single-dose antibiotics (Amoxipen, 100 mg/kg, i.p.) was routinely given for prevention of infection after surgery.
The animals were placed in individual Perspex boxes on a raised metal mesh for at least 40 minutes. Starting with the filament of lowest force (1 g), each filament was applied perpendicularly to the centre of the ventral surface of the paw until slightly bent for 6 seconds. If the animal withdrew or lifted its paw upon stimulation, a von Frey hair with force immediately lower than that tested was subsequently used. If no response was observed, then a hair with force immediately higher was tested. The lowest amount of force required to induce reliable responses (positive in 2 out of 3 trials) was recorded as the value of […] (PWT).
PWT was assessed once daily for three days before surgery and once a week for monitoring the development of mechanical allodynia.
All drug tests were carried out on the 13th to 17th day after surgery. All drug dosing was ‘blindly’ carried out by a second experimenter. The test compounds were administered and PWT was assessed before and 2 hours following drug or vehicle (5% DMSO) administration.

[3] = solubility in distilled water
[4] = LAT8881, concentration not given, one neurone

| Sequence | effect on inward rectification (in words) (dorsal horn neurones; peptide 5 μM) | effect on neuronal input resistance (in words) (dorsal horn neurones; peptide 5 μM) | Input Resistance, mean in presence of peptide (dorsal horn neurones; peptide 5 μM, all cells) | Membrane Potential, mean in presence of peptide (dorsal horn neurones; peptide 5 μM, all cells) | Normalised Input Resistance, mean in presence of peptide (dorsal horn neurones; peptide 5 μM) | Normalised Input Resistance, ΔIR (dorsal horn neurones; peptide 5 μM) | reversal potential of peptide-induced response (intersection of VI relations) (dorsal horn neurones; peptide 5 μM) | Normalised Membrane Potential, mean in presence of peptide (dorsal horn neurones; peptide 5 μM) | Normalised Membrane Potential, ΔVm (dorsal horn neurones; peptide 5 μM) | effect on dorsal root-evoked EPSPs / excitatory synaptic transmission (in words) [1] | effect on dorsal root-evoked IPSPs / inhibitory synaptic transmission (in words) [1] | paw withdrawal threshold (PWT) / reversal of mechanical allodynia ([2]; 10 mg/kg intramuscularly (IM)) | paw withdrawal threshold (PWT) / reversal of mechanical allodynia ([2]; 10 mg/kg orally (PO)) | other results |
| --- | --- | --- | --- | --- | --- | --- | --- | --- | --- | --- | --- | --- | --- | --- |
| CRIIHNNNC [LAT7771, C-terminal fragment of human prolactin spanning residues 219-227 of human prolactin precursor] | enhancement or increase in the strength of inward rectification; also recorded: enhanced inward rectification | little change in neuronal input resistance; also recorded: marginal increase in neuronal input resistance | 447.6 MΩ | −53.8±2.8 mV and −53.8 mV | 94.8 | 5.2 | −55 mV (2×) and −45 mV and −40 mV | 94.8 | 5.2 | In four neurones, dorsal root evoked EPSPs at a frequency of 0.1 Hz were reduced; also recorded: consistently reduced dorsal root-evoked EPSPs; also recorded: EPSPs were suppressed | In two of these neurones, suppression of EPSPs uncovered or activated IPSPs; also recorded: in two neurones promoted inhibitory synaptic transmission; also recorded: enhanced inhibitory synaptic transmission | significantly increased the PWT | significantly increased the PWT | effect on membrane potential / postsynaptic membrane properties (in words) (dorsal horn neurones; peptide 5 μM): little effect on a further 3 dorsal horn neurones; also recorded: principally induced membrane depolarisation; also recorded: membrane depolarisation and an increase in spontaneous firing; also recorded: minimal membrane depolarisation; also recorded: little or no effect on postsynaptic properties; change in neuronal input resistance (dorsal horn neurones; peptide 5 μM vs control): 15.8 ± 36.1 MΩ; ΔIR, change in neuronal input resistance (dorsal horn neurones; peptide 5 μM vs control, table prints control minus drug, text the magnitude): −15.8 MΩ; neuronal input resistance in the presence of peptide (dorsal horn neurones; peptide 5 μM, all cells): 447.6±119.4 MS2; effect on dorsal root-evoked IPSPs (in words) ([1]; prolactin 500 nM, 0.1 Hz and 5 Hz): lack of effect; analgesic properties in vivo ([2]; compared with LAT8881): comparable to that of LAT8881 |
| CRIVYDSNC [LAT7773, C-terminal fragment of canine prolactin, residues 221-229 of canis lupus familiaris prolactin precursor] | enhancing inward rectification; also recorded: enhanced inward rectification | variable effects on input resistance inducing a decrease in 4 neurones and an increase in 5 neurones; also recorded: small increase in neuronal input resistance | 373.5±103.6 MΩ and 373.5 MΩ | −50.3±3.0 mV and −50.3 mV | 99.9 | 0.1 | no clear reversal potential in 7 neurones; also recorded: around −93 mV; also recorded: around −92 mV | 88.4 | 11.6 | In three neurones electrical stimulation of dorsal roots (0.1 Hz) evoked EPSPs that were suppressed; also recorded: In two other neurones EPSPs, and in one of these IPSPs, were enhanced; also recorded: remaining two neurones showed no change; also recorded: in some neurones depressed whilst in others they were clearly potentiated; also recorded: reducing dorsal root afferent-mediated synaptic inputs; also recorded: little effect on dorsal root afferent-mediated excitatory synaptic transmission; also recorded: increase in dorsal root afferent-mediated synaptic transmission | in one of these IPSPs, were enhanced; also recorded: both EPSPs and IPSPs were enhanced |  |  | solubility in distilled water [3]: soluble; membrane hyperpolarisation in individual neurones (dorsal horn neurones; peptide 5 μM, responding neurones): 7.6 mV |
| YLRIVQCRSVEGSCGF [LAT8881, human growth hormone derived analgesic compound of PCT/AU2019/050020, reference compound] |  |  |  |  |  |  |  |  |  |  |  | reversed mechanical allodynia; also recorded: significantly increased the PWT | reversed mechanical allodynia; also recorded: significantly increased the PWT | effect on postsynaptic properties (in words) (dorsal horn neurones; LAT8881, concentration not given, one neurone, after wash of LAT7771): little or no effect on postsynaptic properties; effect on dorsal root-evoked EPSPs (in words) [1, 4]: suppressing EPSPs; effect on inhibitory synaptic transmission / IPSPs (in words) [1, 4]: partly mimicked by LAT8881; also recorded: enhanced inhibitory synaptic transmission |
